Reference: article PMC6440935, “Characterization and phase I study of CLR457, an orally bioavailable pan-class I PI3-kinase inhibitor” (Investigational New Drugs, 2018)
Where two headings read alike, the source gives them in different places.

Details: drug-related
Excerpt: The primary objective was to define the maximum tolerated dose (MTD). Secondary objectives included assessments for safety, tolerability, pharmacokinetic (PK) profile, and preliminary antitumor activity.
Patients had histologically documented locally advanced or metastatic solid tumors harboring an activating PIK3CA mutation or amplification, PTEN loss of function, c-MET activation, [16, 17] […] Other key inclusion criteria included age ≥ 18 years, Eastern Cooperative Oncology Group performance status (ECOG-PS) ≤2, adequate organ function, measurable or non-measurable disease as determined by Response Evaluation Criteria in Solid Tumors (RECIST) version 1.1.
The starting dose for CLR457 was 5 mg QD, based on preclinical toxicology studies in accordance with ICH guidelines, and was administered at the same time each day ±2 h in a fasted state. Various doses were planned up to 300 mg QD until MTD determination.
Safety was evaluated by incidence, nature, severity, and relatedness of adverse events (AEs), and graded according to National Cancer Institute - Common Terminology Criteria for Adverse Events (NCI CTCAE) v4.0.3. DLTs were defined as any hematologic or non-hematologic ≥ Grade 3 AE assessed as possibly related to CLR457 that occurred within the first cycle (28 days) of treatment. In addition, uncontrolled (> 14 days) Grade 2 rash or hyperglycemia were also considered DLTs. All AEs regardless of attribution were collected until 30 days following the last administration of treatment or study discontinuation/termination.
Descriptive methods were used to tabulate toxicity and response endpoints in the clinical trial. All patients treated with CLR457 were included for safety. […] Dose escalation was guided by an adaptive Bayesian logistic regression model (BLRM) incorporating the escalation with overdose control (EWOC) principle. […] The study data (including DLTs during cycle 1 and other safety and PK data) were reviewed by the sponsor and trial investigators at each dose level. […] The Full Analysis Set (FAS) included all patients who received at least one dose of CLR457. Safety set included all patients who received at least one dose of CLR457 and had at least one valid post-baseline assessment. The Dose-determining set (DDS) included all patients from the safety set who either met the following minimum exposure criterion and had sufficient safety evaluations, or experienced a DLT during Cycle 1 (the first 28 days of dosing). The Pharmacokinetic analysis set included all patients who had at least one blood sample providing evaluable PK data.

## C[C@H]1OC(=O)N(c2cc(-c3cnc(N)nc3C(F)(F)F)nc(N3CCOCC3)n2)[C@H]1CO [CLR457]
40 mg, N = 5
  Decreased neutrophil count, All Grade: 0 n (%)
  Decreased neutrophil count, Grade ≥ 3: 0 n (%)
  Dehydration, All Grade: 0 n (%)
  Dehydration, Grade ≥ 3: 0 n (%)
  Diarrhea, All Grade: 3 (60.0) n (%)
  Diarrhea, Grade ≥ 3: 0 n (%)
  Dry mouth, All Grade: 0 n (%)
  Dry mouth, Grade ≥ 3: 0 n (%)
  Dry skin, All Grade: 0 n (%)
  Dry skin, Grade ≥ 3: 0 n (%)
  Dysgeusia, All Grade: 1 (20.0) n (%)
  Dysgeusia, Grade ≥ 3: 0 n (%)
  Fatigue, All Grade: 1 (20.0) n (%)
  Fatigue, Grade ≥ 3: 0 n (%)
  Headache, All Grade: 0 n (%)
  Headache, Grade ≥ 3: 0 n (%)
  Hyperglycemia, All Grade: 2 (40.0) n (%)
  Hyperglycemia, Grade ≥ 3: 0 n (%)
  Hypomagnesaemia, All Grade: 0 n (%)
  Hypomagnesaemia, Grade ≥ 3: 0 n (%)
  Maculo-papular rash, All Grade: 2 (40.0) n (%)
  Maculo-papular rash, Grade ≥ 3: 2 (40.0) n (%)
  Nausea, All Grade: 2 (40.0) n (%)
  Nausea, Grade ≥ 3: 0 n (%)
  Pneumonitis, All Grade: 0 n (%)
  Pneumonitis, Grade ≥ 3: 0 n (%)
  Pruritus, All Grade: 1 (20.0) n (%)
  Pruritus, Grade ≥ 3: 0 n (%)
  Pyrexia, All Grade: 0 n (%)
  Pyrexia, Grade ≥ 3: 0 n (%)
  Rash, All Grade: 0 n (%)
  Rash, Grade ≥ 3: 0 n (%)
  Stomatitis, All Grade: 3 (60.0) n (%)
  Stomatitis, Grade ≥ 3: 0 n (%)
  Vomiting, All Grade: 1 (20.0) n (%)
  Vomiting, Grade ≥ 3: 0 n (%)
  Weight decreased, All Grade: 1 (20.0) n (%)
  Weight decreased, Grade ≥ 3: 0 n (%)
70 mg, N = 6
  Asthenia, Grade ≥ 3: 0 n (%)
  Chills, All Grade: 0 n (%)
  Chills, Grade ≥ 3: 0 n (%)
  Colitis, All Grade: 1 (16.7) n (%)
  Colitis, Grade ≥ 3: 1 (16.7) n (%)
  Cough, All Grade: 0 n (%)
  Cough, Grade ≥ 3: 0 n (%)
  Decreased appetite, All Grade: 2 (33.3) n (%)
  Decreased appetite, Grade ≥ 3: 0 n (%)
  Decreased neutrophil count, All Grade: 1 (16.7) n (%)
  Decreased neutrophil count, Grade ≥ 3: 0 n (%)
  Dehydration, All Grade: 1 (16.7) n (%)
  Dehydration, Grade ≥ 3: 1 (16.7) n (%)
  Diarrhea, All Grade: 4 (66.7) n (%)
  Diarrhea, Grade ≥ 3: 1 (16.7) n (%)
  Dry mouth, All Grade: 1 (16.7) n (%)
  Dry mouth, Grade ≥ 3: 0 n (%)
  Dry skin, All Grade: 1 (16.7) n (%)
  Dry skin, Grade ≥ 3: 0 n (%)
  Dysgeusia, All Grade: 0 n (%)
  Dysgeusia, Grade ≥ 3: 0 n (%)
  Fatigue, All Grade: 1 (16.7) n (%)
  Fatigue, Grade ≥ 3: 0 n (%)
  Headache, All Grade: 1 (16.7) n (%)
  Headache, Grade ≥ 3: 0 n (%)
  Hyperglycemia, All Grade: 1 (16.7) n (%)
  Hyperglycemia, Grade ≥ 3: 0 n (%)
  Hypomagnesaemia, All Grade: 1 (16.7) n (%)
  Hypomagnesaemia, Grade ≥ 3: 0 n (%)
  Maculo-papular rash, All Grade: 2 (33.3) n (%)
  Maculo-papular rash, Grade ≥ 3: 1 (16.7) n (%)
  Nausea, All Grade: 2 (33.3) n (%)
  Nausea, Grade ≥ 3: 0 n (%)
  Pneumonitis, All Grade: 0 n (%)
  Pneumonitis, Grade ≥ 3: 0 n (%)
  Pruritus, All Grade: 1 (16.7) n (%)
  Pruritus, Grade ≥ 3: 0 n (%)
  Pyrexia, All Grade: 1 (16.7) n (%)
  Pyrexia, Grade ≥ 3: 0 n (%)
  Rash, All Grade: 2 (33.3) n (%)
  Rash, Grade ≥ 3: 1 (16.7) n (%)
  Stomatitis, All Grade: 2 (33.3) n (%)
  Stomatitis, Grade ≥ 3: 0 n (%)
  Vomiting, All Grade: 2 (33.3) n (%)
  Vomiting, Grade ≥ 3: 0 n (%)
  Weight decreased, All Grade: 1 (16.7) n (%)
  Weight decreased, Grade ≥ 3: 0 n (%)
100 mg, N = 11
  Asthenia, Grade ≥ 3: 0 n (%)
  Chills, All Grade: 2 (18.2) n (%)
  Chills, Grade ≥ 3: 0 n (%)
  Colitis, All Grade: 1 (9.1) n (%)
  Colitis, Grade ≥ 3: 1 (9.1) n (%)
  Cough, All Grade: 2 (18.2) n (%)
  Cough, Grade ≥ 3: 0 n (%)
  Decreased appetite, All Grade: 4 (36.4) n (%)
  Decreased appetite, Grade ≥ 3: 0 n (%)
  Decreased neutrophil count, All Grade: 1 (9.1) n (%)
  Decreased neutrophil count, Grade ≥ 3: 1 (9.1) n (%)
